Active and inactive are the calls of the source. The calls are words filed in the database; no cut-off is given here.
What was measured:
[1] = target: T1, Fanconi anemia group F protein/Transcription factor HES-1 (Homo sapiens) (UniProt Q9NPI8+Q14469); assay: Inhibition of Cy3-GST-tagged human recombinant full length FANCF/Cy3-tagged human full length HES1 (1 to 280 amino acid residues) interaction expressed in Escherichia coli JM109 at 10 uM after 1 hrs by microplate reader assay
[2] = target: T2, Fanconi anemia group F protein/Transcription factor HES-1 (Homo sapiens, UniProt Q14469+Q9NPI8); assay: (§1) Inhibition of Cy3-GST-tagged human recombinant full length FANCF/Cy3-tagged human full length HES1 (1 to 280 amino acid residues) interaction expressed in Escherichia coli JM109 after 1 hrs by microplate reader assay
T2 sequence (Q9NPI8 whole entry): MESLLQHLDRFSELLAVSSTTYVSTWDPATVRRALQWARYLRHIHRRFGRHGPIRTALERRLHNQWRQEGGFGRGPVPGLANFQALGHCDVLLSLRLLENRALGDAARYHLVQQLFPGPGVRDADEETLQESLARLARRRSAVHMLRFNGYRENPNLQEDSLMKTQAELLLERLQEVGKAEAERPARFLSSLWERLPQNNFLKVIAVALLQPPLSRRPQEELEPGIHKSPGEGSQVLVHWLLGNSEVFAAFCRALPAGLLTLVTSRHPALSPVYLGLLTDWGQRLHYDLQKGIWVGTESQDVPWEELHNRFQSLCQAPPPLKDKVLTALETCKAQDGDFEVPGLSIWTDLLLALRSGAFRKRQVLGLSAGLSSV
T2 sequence (Q14469 whole entry): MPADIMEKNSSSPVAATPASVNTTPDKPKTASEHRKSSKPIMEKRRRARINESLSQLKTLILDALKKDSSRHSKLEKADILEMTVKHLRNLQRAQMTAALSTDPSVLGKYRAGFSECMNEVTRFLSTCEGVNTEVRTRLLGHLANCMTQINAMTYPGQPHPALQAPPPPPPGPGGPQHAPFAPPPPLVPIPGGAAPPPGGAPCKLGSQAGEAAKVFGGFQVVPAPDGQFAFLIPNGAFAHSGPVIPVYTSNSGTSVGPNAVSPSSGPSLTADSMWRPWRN

[3] = target: T1, Fanconi anemia group F protein/Transcription factor HES-1 (Homo sapiens); assay: as §1
[4] = target: T3, Transcription factor HES-1 (Homo sapiens, UniProt Q14469); assay: Inhibition of Cy3-tagged human recombinant full length HES1 (1 to 280 amino acid residues)/Cy3-GST-tagged human recombinant full length HES1 (1 to 280 amino acid residues) dimer formation expressed in Escherichia coli JM109 after 1 hr by microplate reader assay
T3 sequence (Q14469 whole entry): T2 sequence (Q14469 whole entry)

[5] = Inhibition of Cy3-GST-tagged human recombinant full length FANCF/Cy3-tagged rat Hes1 (3 to 281 amino acid residues) interaction expressed in Escherichia coli JM109 at 50 uM after 1 hrs by microplate reader assay
[6] = Inhibition of GST-tagged recombinant mouse beta-catenin (128 to 683 amino acid residues)/human recombinant TCF4E (1 to 100 amino acid residues) complex formation expressed in Escherichia coli JM109 after 1 hrs by microplate reader assay
Bone marrow cell [7] = assay: Reduction of colony formation in Fanconi C deficient mouse bone marrow cells at 50 uM after 10 to 14 days; format: functional, cell-based
Bone marrow cell [8] = assay: Reduction of colony formation in Fanconi A deficient mouse bone marrow cells at 50 uM after 10 to 14 days; format: functional, cell-based
[9] = Reduction of colony formation in wild type mouse bone marrow cells at 50 uM after 10 to 14 days; format: functional, Bone marrow cell; parameters: scale not given: the % may be the effect or the level left

| inhibition [1] [%] | IC50 [2] [µM] | inhibition [3] | IC50 [4] [µM] | inhibition [5] | IC50 [6] [µM] | Structure (SMILES) | Activity (Bone marrow cell [7]) | Activity (Bone marrow cell [8]) | Activity [9] [%] |
| --- | --- | --- | --- | --- | --- | --- | --- | --- | --- |
| 40 | 35.8 | Dose-dependent effect | > 100 | Active | > 100 | C[C@@H]1O[C@@H](OC[C@H]2O[C@@H](Oc3c(-c4ccc(O)c(O)c4)oc4cc(O)cc(O)c4c3=O)[C@H](O)[C@@H](O)[C@H]2O)[C@H](O)[C@H](O)[C@H]1O |  |  |  |
| 40 | 23.6 | Dose-dependent effect | 25.7 | Active | > 100 | C[C@@H]1O[C@@H](OC[C@H]2O[C@@H](Oc3c(-c4ccc(O[C@@H]5O[C@@H](C)[C@H](O)[C@@H](O)[C@H]5O)c(O)c4)oc4cc(O)cc(O)c4c3=O)[C@H](O)[C@@H](O)[C@@H]2O)[C@H](O)[C@H](O)[C@H]1O | inactive | Active | 40 |
|  |  | Dose-dependent effect |  | Active |  | C[C@@H]1O[C@@H](OC[C@H]2O[C@@H](Oc3c(-c4ccc(O[C@@H]5O[C@@H](C)[C@H](O)[C@@H](O)[C@H]5O)cc4)oc4cc(O)cc(O)c4c3=O)[C@H](O)[C@@H](O)[C@@H]2O)[C@H](O)[C@H](O)[C@H]1O |  |  |  |
